Measured values taken from US10100049B2, “JAK kinase inhibitor compounds for treatment of respiratory disease” (THERAVANCE BIOPHARMA R&D IP, LLC, priority 2015, dated 2018).
Like-named read-outs stand apart in the source and are kept apart here. One block for each compound: values may come before it.

Experiments:
[1] = tested on: Alternaria-induced BALF eosinophils; experiment: Murine model of Alternaria alternata-induced eosinophilic inflammation of the lung; format: in vivo; conditions: mouse; maximum statistically significant inhibition; 0.1-1.0 mg/mL, 50 μL oropharyngeal aspiration; BALF 48 h after alternaria
Experimental: Airway eosinophilia is a hallmark of human asthma. Alternaria alternata is a fungal aeroallergen that can exacerbate asthma in humans and induces eosinophilic inflammation in the lungs of mice (Havaux et al. Clin Exp Immunol. 2005, 139(2):179-88).
Seven- to nine-week old male C57 mice from Taconic were used in the study. On the day of study, animals were lightly anesthetized with isoflurane and administered either vehicle or test compound (0.1-1.0 mg/mL, 50 μL total volume over several breaths) via oropharyngeal aspiration. Animals were placed in lateral recumbency post dose and monitored for full recovery from anesthesia before being returned to their home cage. One hour later, animals were once again briefly anesthetized and challenged with either vehicle or alternaria extract (200 ug total extract delivered, 50 μL total volume) via oropharyngeal aspiration before being monitored for recovery from anesthesia and returned to their home cage. Forty-eight hours after alternaria administration, bronchoalveolar lavage fluid (BALF) was collected and eosinophils were counted in the BALF using the Advia 120 Hematology System (Siemens).
Selected compounds of the invention were tested in this alternaria assay. Activity in the model is evidenced by a decrease in the level of eosinophils present in the BALF of treated animals at forty-eight hours compared to the vehicle treated, alternaria challenged control animals. Data are expressed as percent inhibition of the vehicle treated, alternaria challenged BALF eosinophils response. To calculate percent inhibition, the number of BALF eosinophils for each condition is converted to percent of the average vehicle treated, alternaria challenged BALF eosinophils and subtracted from one-hundred percent.

[2] = tested on: IL-13 induced pSTAT6 in lung tissue; experiment: Murine model of IL-13 induced pSTAT6 induction in lung tissue; format: in vivo; conditions: mouse lung; for inhibition in vivo at 500 µg/mL: 0.5 mg/mL, 50 μL oral aspiration, IL-13 challenge 4 h after dosing, lungs collected 1 h later, read-out: pSTAT6 inhibition Assay 5; for factor by which lung concentration was smaller than that of the corresponding compound of the invention: pharmacodynamic assay
Experimental: Il-13 is an important cytokine underlying the pathophysiology of asthma (Kudlacz et al. Eur. J. Pharmacol, 2008, 582, 154-161). IL-13 binds to cell surface receptors activating members of the Janus family of kinases (JAK) which then phosphorylate STAT6 and subsequently activates further transcription pathways. In the described model, a dose of IL-13 was delivered locally into the lungs of mice to induce the phosphorylation of STAT6 (pSTAT6) which is then measured as the endpoint.
Adult balb/c mice from Harlan were used in the assay. On the day of study, animals were lightly anesthetized with isoflurane and administered either vehicle or test compound (0.5 mg/mL, 50 μL total volume over several breaths) via oral aspiration. Animals were placed in lateral recumbency post dose and monitored for full recovery from anesthesia before being returned to their home cage. Four hours later, animals were once again briefly anesthetized and challenged with either vehicle or IL-13 (0.03 μg total dose delivered, 50 μL total volume) via oral aspiration before being monitored for recovery from anesthesia and returned to their home cage. One hour after vehicle or IL-13 administration, lungs were collected for both pSTAT6 detection using an anti-pSTAT6 ELISA (rabbit mAb capture/coating antibody; mouse mAb detection/report antibody: anti-pSTAT6-pY641; secondary antibody: anti-mouse IgG-HRP) and analyzed for total drug concentration as described above in Assay 4.
Selected compounds of the invention were tested in the assay. Activity in the model is evidenced by a decrease in the level of pSTAT6 present in the lungs of treated animals at 5 hours compared to the vehicle treated, IL-13 challenged control animals. The difference between the control animals which were vehicle-treated, IL-13 challenged and the control animals which were vehicle-treated, vehicle challenged dictated the 0% and 100% inhibitory effect, respectively, in any given experiment.

[3] = target: JAK2 (Homo sapiens (Human), UniProt O60674)
Chain of JAK2 (O60674 whole entry): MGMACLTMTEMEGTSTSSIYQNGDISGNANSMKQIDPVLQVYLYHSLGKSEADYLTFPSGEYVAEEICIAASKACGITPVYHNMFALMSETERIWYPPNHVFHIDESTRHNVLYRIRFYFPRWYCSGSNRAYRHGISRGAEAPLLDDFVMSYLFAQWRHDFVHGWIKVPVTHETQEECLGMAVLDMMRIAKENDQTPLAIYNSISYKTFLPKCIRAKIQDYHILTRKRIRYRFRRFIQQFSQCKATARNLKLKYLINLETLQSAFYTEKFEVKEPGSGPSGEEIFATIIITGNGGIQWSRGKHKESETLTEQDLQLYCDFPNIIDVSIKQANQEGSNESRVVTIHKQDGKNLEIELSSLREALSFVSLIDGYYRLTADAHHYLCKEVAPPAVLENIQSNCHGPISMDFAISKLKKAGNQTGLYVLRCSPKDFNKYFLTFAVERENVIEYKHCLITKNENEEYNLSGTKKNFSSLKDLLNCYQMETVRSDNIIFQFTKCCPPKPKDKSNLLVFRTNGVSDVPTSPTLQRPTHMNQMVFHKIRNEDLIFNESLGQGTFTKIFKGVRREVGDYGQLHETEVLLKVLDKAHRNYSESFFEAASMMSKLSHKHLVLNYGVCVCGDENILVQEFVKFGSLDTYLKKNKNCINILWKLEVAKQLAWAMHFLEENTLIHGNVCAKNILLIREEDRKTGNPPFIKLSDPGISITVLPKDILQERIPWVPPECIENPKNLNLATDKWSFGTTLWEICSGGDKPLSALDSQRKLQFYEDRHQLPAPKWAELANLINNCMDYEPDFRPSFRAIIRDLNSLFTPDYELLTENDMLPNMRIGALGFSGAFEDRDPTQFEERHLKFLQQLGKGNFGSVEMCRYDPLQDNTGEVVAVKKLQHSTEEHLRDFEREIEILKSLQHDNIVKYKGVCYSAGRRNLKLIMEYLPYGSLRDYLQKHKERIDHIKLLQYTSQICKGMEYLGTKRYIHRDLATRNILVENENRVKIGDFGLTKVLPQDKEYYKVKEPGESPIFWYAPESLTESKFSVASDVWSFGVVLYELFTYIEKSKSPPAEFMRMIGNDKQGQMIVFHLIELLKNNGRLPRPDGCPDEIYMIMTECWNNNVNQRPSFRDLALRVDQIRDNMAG

[4] = tested on: IL-13 induced STAT6 phosphorylation in BEAS-2B human lung epithelial cells; experiment: AlphaScreen cellular potency assay, IL-13 induced STAT6 phosphorylation in BEAS-2B cells; format: cell-based; conditions: for IC50: Homo sapiens
[5] = Pharmacokinetics in plasma and lung in mouse; format: in vivo; conditions: oral aspiration 0.2 mg/mL 50 uL, lung AUC (μg hr/g) / plasma AUC (μg hr/mL)
Experimental: Plasma and lung levels of test compounds and ratios thereof were determined in the following manner. BALB/c mice from Charles River Laboratories were used in the assay. Test compounds were individually formulated in 20% propylene glycol in pH 4 citrate buffer at a concentration of 0.2 mg/mL and 50 uL of the dosing solution was introduced into the trachea of a mouse by oral aspiration. At various time points (typically 0.167, 2, 6, 24 hr) post dosing, blood samples were removed via cardiac puncture and intact lungs were excised from the mice. Blood samples were centrifuged (Eppendorf centrifuge, 5804R) for 4 minutes at approximately 12,000 rpm at 4° C. to collect plasma. Lungs were padded dry, weighed, and homogenized at a dilution of 1:3 in sterile water. Plasma and lung levels of test compound were determined by LC-MS analysis against analytical standards constructed into a standard curve in the test matrix. A lung to plasma ratio was determined as the ratio of the lung AUC in μg hr/g to the plasma AUC in μg hr/mL, where AUC is conventionally defined as the area under the curve of test compound concentration vs. time.

[6] = target: Tyk2 (Homo sapiens (Human), UniProt P29597); experiment: LanthaScreen JAK biochemical assay (Tyk2); conditions: read-out: Tyk 2 (PKi); further: ATP at Km 10 µM
Chain of Tyk2 (P29597 whole entry): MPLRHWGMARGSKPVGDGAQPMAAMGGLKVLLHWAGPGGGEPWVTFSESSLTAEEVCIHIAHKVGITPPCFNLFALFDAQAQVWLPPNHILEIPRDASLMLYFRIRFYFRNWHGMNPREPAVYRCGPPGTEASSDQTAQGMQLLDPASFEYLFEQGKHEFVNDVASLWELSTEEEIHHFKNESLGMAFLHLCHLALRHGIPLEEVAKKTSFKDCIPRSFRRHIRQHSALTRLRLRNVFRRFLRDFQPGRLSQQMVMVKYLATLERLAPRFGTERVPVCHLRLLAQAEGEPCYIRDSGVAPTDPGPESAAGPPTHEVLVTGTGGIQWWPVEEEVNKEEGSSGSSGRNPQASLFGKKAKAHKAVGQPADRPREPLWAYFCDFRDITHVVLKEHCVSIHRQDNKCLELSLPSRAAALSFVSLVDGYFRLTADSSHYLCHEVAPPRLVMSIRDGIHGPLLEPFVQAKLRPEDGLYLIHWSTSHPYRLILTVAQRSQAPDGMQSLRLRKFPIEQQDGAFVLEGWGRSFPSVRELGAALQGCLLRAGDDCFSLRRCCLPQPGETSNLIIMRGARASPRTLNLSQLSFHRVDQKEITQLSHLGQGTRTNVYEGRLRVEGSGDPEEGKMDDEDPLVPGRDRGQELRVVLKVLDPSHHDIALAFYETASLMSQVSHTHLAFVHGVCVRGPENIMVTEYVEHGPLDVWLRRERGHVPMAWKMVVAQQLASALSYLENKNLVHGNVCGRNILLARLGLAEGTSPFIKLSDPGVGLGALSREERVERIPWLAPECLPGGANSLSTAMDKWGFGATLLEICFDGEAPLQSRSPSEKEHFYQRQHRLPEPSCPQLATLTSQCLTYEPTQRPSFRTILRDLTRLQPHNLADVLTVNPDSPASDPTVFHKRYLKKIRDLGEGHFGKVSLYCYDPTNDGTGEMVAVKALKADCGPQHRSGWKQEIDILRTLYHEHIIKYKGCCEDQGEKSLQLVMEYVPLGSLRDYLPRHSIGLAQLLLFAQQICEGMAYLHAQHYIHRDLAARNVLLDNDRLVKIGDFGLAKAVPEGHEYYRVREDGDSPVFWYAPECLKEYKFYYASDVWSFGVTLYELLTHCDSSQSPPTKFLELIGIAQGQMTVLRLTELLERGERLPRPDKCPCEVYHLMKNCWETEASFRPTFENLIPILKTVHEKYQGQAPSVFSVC

[7] = target: JAK3 (Homo sapiens (Human), UniProt P52333); experiment: LanthaScreen JAK biochemical assay (JAK3); conditions: ATP at Km 1.6 μM; read-out: JAK 3 (pKi) (converted)
Chain of JAK3 (P52333 whole entry): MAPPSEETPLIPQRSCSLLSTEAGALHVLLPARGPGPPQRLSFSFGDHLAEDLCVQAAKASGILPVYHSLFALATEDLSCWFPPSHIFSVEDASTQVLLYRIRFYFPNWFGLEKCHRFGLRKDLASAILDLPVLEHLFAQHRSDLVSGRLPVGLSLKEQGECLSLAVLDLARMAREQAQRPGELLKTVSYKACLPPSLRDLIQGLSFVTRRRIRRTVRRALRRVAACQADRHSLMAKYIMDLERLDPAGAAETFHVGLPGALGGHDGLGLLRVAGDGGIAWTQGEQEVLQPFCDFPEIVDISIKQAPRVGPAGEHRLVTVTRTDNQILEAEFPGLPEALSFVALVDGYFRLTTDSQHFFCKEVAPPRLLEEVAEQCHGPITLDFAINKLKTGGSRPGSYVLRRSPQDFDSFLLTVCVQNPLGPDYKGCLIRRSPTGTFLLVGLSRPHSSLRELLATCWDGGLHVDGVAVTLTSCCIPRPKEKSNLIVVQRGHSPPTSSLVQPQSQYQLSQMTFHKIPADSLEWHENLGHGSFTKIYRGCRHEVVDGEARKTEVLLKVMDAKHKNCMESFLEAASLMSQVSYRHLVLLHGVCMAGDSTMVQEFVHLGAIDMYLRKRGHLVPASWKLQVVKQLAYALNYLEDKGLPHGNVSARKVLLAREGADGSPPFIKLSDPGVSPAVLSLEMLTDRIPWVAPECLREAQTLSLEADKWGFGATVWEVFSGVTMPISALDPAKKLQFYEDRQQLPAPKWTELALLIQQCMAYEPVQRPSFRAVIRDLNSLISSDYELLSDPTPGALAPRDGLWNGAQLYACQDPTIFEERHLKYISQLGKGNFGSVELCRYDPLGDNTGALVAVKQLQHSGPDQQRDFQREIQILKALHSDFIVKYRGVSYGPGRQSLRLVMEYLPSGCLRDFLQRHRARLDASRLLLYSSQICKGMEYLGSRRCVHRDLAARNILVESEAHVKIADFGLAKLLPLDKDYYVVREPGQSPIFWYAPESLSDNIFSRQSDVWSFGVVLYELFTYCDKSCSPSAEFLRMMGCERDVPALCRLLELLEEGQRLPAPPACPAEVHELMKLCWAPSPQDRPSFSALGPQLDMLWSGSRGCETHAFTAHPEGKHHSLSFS

[8] = target: JAK1 (Homo sapiens (Human), UniProt P23458); experiment: LanthaScreen JAK biochemical assay (JAK1); conditions: for fold less potent than the corresponding compound of the invention in the enzyme assay: JAK1 enzyme assay
Chain of JAK1 (P23458 whole entry): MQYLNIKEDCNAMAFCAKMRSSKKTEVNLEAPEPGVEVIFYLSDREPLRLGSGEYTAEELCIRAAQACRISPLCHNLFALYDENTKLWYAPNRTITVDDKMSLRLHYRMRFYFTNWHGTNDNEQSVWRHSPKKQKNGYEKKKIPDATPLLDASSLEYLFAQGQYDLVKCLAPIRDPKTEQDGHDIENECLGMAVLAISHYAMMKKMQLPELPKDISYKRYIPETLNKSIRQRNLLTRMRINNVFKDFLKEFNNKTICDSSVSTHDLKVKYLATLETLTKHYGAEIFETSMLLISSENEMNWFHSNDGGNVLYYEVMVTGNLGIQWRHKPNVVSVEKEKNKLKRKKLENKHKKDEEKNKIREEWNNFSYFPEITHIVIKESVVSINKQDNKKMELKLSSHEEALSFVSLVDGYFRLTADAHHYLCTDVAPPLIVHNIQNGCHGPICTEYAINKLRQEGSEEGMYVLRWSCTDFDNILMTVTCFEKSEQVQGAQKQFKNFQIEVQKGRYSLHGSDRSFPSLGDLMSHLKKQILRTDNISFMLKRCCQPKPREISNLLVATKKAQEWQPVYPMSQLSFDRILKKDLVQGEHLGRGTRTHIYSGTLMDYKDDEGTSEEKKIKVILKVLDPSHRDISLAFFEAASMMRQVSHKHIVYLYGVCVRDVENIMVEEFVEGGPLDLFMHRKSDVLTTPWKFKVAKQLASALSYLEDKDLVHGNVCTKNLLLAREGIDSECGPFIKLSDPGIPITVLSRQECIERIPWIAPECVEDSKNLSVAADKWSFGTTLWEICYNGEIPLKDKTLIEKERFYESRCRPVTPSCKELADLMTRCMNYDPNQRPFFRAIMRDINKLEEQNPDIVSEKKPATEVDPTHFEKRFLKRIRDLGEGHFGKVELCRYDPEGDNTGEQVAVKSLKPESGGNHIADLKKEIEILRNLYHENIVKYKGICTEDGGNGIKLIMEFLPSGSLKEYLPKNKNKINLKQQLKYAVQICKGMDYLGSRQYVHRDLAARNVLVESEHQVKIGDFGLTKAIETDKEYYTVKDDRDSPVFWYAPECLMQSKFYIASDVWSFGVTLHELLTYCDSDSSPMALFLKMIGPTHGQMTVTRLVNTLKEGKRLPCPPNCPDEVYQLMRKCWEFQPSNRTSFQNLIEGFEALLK

[9] = IL-13 induced STAT6 phosphorylation, BEAS-2B cells, read-out: BEAS-2B pIC50 (converted)
[10] = read-out: pKi, JAK1 enzyme assay (converted)
[11] = BEAS-2B, read-out: BEAS-2B pIC50 (cellular potency) (converted)

SMILES: CCc1cc(O)c(F)cc1-c1ccc2c(-c3nc4c([nH]3)CCN(C3CN(C)C3)C4)n[nH]c2c1 [Example 1, 5-Ethyl-2-fluoro-4-(3-(5-(1-methylazetidin-3-yl)-4,5,6,7-tetrahydro-1H-imidazo[4,5-c]pyridin-2-yl)-1H-indazol-6-yl)phenol]
- Percent Inhibition of Alternaria-induced BALF Eosinophils [1]: 98%
- inhibition in vivo at 500 µg/mL [2]: > 65%
- Ki [3]: < 0.1 nM
- IC50 [4, 9]: < 10 nM
- Lung to Plasma ratio Assay 4 [5]: B (B denotes a ratio between 50 and 100)

SMILES: CCc1cc(O)c(F)cc1-c1ccc2c(-c3nc4c([nH]3)CCN(C3CNC3)C4)n[nH]c2c1 [Example 2, 4-(3-(5-(azetidin-3-yl)-4,5,6,7-tetrahydro-1H-imidazo[4,5-c]pyridin-2-yl)-1H-indazol-6-yl)-5-ethyl-2-fluorophenol]
- Percent Inhibition of Alternaria-induced BALF Eosinophils [1]: 93%
- inhibition in vivo at 500 µg/mL [2]: 33 to 50%
- Ki [6]: 0.1 to 1 nM
- Ki [3]: < 0.1 nM
- IC50 [4, 9]: 10 to 39.8 nM
- Lung to Plasma ratio Assay 4 [5]: C (C denotes a ratio between 10 and 50)

SMILES: CCc1cc(O)c(F)cc1-c1ccc2c(-c3nc4c([nH]3)CCN(C3CN(C(C)C)C3)C4)n[nH]c2c1 [Example 3, 5-ethyl-2-fluoro-4-(3-(5-(1-isopropylazetidin-3-yl)-4,5,6,7-tetrahydro-1H-imidazo[4,5-c]pyridin-2-yl)-1H-indazol-6-yl)phenol]
- Percent Inhibition of Alternaria-induced BALF Eosinophils [1]: 61%
- inhibition in vivo at 500 µg/mL [2]: > 65%
- Ki [6]: 0.1 to 1 nM
- Ki [3]: < 0.1 nM
- IC50 [4, 9]: < 10 nM
- Ki [7]: 0.1 to 1 nM
- Lung to Plasma ratio Assay 4 [5]: C (C denotes a ratio between 10 and 50)

- Ki [8, 10]: 1 to 3.16 nM
SMILES: CCc1cc(O)c(F)cc1-c1ccc2c(-c3nc4c([nH]3)CCN(CC3CCCN3C3COC3)C4)n[nH]c2c1 (centres unmarked) [Example 4-8]
- IC50 [4, 11]: 39.8 to 1000 nM

SMILES: CCc1cc(O)c(F)cc1-c1ccc2c(-c3nc4c([nH]3)CCN(C3CCN(C)CC3)C4)n[nH]c2c1 [Example 6, 5-Ethyl-2-fluoro-4-(3-(5-(1-methylpiperidin-4-yl)-4,5,6,7-tetrahydro-1H-imidazo[4,5-c]pyridin-2-yl)-1H-indazol-6-yl)phenol]
- Percent Inhibition of Alternaria-induced BALF Eosinophils [1]: 88%
- inhibition in vivo at 500 µg/mL [2]: 50 to 65%
- Ki [6]: 0.1 to 1 nM
- Ki [3]: < 0.1 nM
- IC50 [4, 9]: < 10 nM
- Ki [7]: 0.1 to 1 nM
- Lung to Plasma ratio Assay 4 [5]: B (B denotes a ratio between 50 and 100)

SMILES: CCc1cc(O)c(F)cc1-c1ccc2c(-c3nc4c([nH]3)CCN(CCN(C)C)C4)n[nH]c2c1 [Example 7, 4-(3-(5-(2-(dimethylamino)ethyl)-4,5,6,7-tetrahydro-1H-imidazo[4,5-c]pyridin-2-yl)-1H-indazol-6-yl)-5-ethyl-2-fluorophenol]
- Percent Inhibition of Alternaria-induced BALF Eosinophils [1]: 96%
- inhibition in vivo at 500 µg/mL [2]: > 65%
- Ki [3]: < 0.1 nM
- IC50 [4, 9]: < 10 nM
- Lung to Plasma ratio Assay 4 [5]: B (B denotes a ratio between 50 and 100)

SMILES: CCc1cc(O)c(F)cc1-c1ccc2c(-c3nc4c([nH]3)CCN(CCNC3CC(OC)C3)C4)n[nH]c2c1 (centres unmarked) [Example 8, 5-Ethyl-2-fluoro-4-(3-(5-(2-((3-methoxycyclobutyl)amino)ethyl)-4,5,6,7-tetrahydro-1H-imidazo[4,5-c]pyridin-2-yl)-1H-indazol-6-yl)phenol]
- Percent Inhibition of Alternaria-induced BALF Eosinophils [1]: 60%
- inhibition in vivo at 500 µg/mL [2]: 50 to 65%
- Ki [6]: 0.1 to 1 nM
- Ki [3]: < 0.1 nM
- IC50 [4, 9]: < 10 nM
- Ki [7]: 0.1 to 1 nM
- Lung to Plasma ratio Assay 4 [5]: A (A denotes a ratio >100)

- Ki [8, 10]: 1 to 3.16 nM
SMILES: CCc1cc(O)c(F)cc1-c1ccc2c(-c3nc4c([nH]3)CCN(CC3CCN3C3COC3)C4)n[nH]c2c1 (centres unmarked) [Example 8-11]
- IC50 [4, 11]: 39.8 to 1000 nM

SMILES: CCc1cc(O)c(F)cc1-c1ccc2c(-c3nc4c([nH]3)CCN(C[C@@H]3CCCN3C)C4)n[nH]c2c1 [Example 11, (S)-5-ethyl-2-fluoro-4-(3-(5-((1-methylpyrrolidin-2-yl)methyl)-4,5,6,7-tetrahydro-1H-imidazo[4,5-c]pyridin-2-yl)-1H-indazol-6-yl)phenol]
- Percent Inhibition of Alternaria-induced BALF Eosinophils [1]: 71%
- inhibition in vivo at 500 µg/mL [2]: 33 to 50%
- Ki [6]: 0.316 to 1 nM
- Ki [3]: < 0.1 nM
- Ki ([8]; ATP at Km 25 μM, read-out: JAK 1 (pKi) (converted)): 0.1 to 1 nM
- IC50 [4, 9]: < 10 nM
- Ki [7]: 0.1 to 1 nM
- Lung to Plasma ratio Assay 4 [5]: A (A denotes a ratio >100)

SMILES: CCc1cc(O)c(F)cc1-c1ccc2c(-c3nc4c([nH]3)CCN(C[C@H]3COCCN3)C4)n[nH]c2c1 [Example 13, (S)-5-Ethyl-2-fluoro-4-(3-(5-(morpholin-3-ylmethyl)-4,5,6,7-tetrahydro-1H-imidazo[4,5-c]pyridin-2-yl)-1H-indazol-6-yl)phenol]
- Percent Inhibition of Alternaria-induced BALF Eosinophils [1]: 82%
- inhibition in vivo at 500 µg/mL [2]: 33 to 50%
- Ki [6]: 0.316 to 1 nM
- Ki [3]: < 0.1 nM
- IC50 [4, 9]: < 10 nM
- Ki [7]: 0.1 to 1 nM
- Lung to Plasma ratio Assay 4 [5]: A (A denotes a ratio >100)

SMILES: CCc1cc(O)c(F)cc1-c1ccc2c(-c3nc4c([nH]3)CCN(C3CC(C)C3)C4)n[nH]c2c1 (centres unmarked) [Example C-1, 5-Ethyl-2-fluoro-4-(3-(5-(3-methylcyclobutyl)-4,5,6,7-tetrahydro-1H-imidazo[4,5-c]pyridin-2-yl)-1H-indazol-6-yl)phenol, reference compound]
- factor by which lung concentration was smaller than that of the corresponding compound of the invention [2]: 36
- fold less potent than the corresponding compound of the invention in the enzyme assay [8]: 2 fold
- fold less potent than the corresponding compound of the invention in the BEAS-2B cellular assay [4]: 6 fold

SMILES: CCc1cc(O)c(F)cc1-c1ccc2c(-c3nc4c([nH]3)CCN(CCC(C)C)C4)n[nH]c2c1 [Example C-2, reference compound]
- factor by which lung concentration was smaller than that of the corresponding compound of the invention [2]: 52
- fold less potent than the corresponding compound of the invention in the enzyme assay [8]: 3 fold
- fold less potent than the corresponding compound of the invention in the BEAS-2B cellular assay [4]: 6 fold

SMILES: CCc1cc(O)c(F)cc1-c1ccc2c(-c3nc4c([nH]3)CCN(CC3CCCOC3)C4)n[nH]c2c1 (centres unmarked) [Example C-3, reference compound]
- factor by which lung concentration was smaller than that of the corresponding compound of the invention [2]: 13
- fold less potent than the corresponding compound of the invention in the enzyme assay [8]: 6 fold
- fold less potent than the corresponding compound of the invention in the BEAS-2B cellular assay [4]: 3 fold

SMILES: CCc1cc(O)c(F)cc1-c1ccc2c(-c3nc4c([nH]3)CCN(C3CCC(C)CC3)C4)n[nH]c2c1 (centres unmarked) [Example C-4, reference compound]
- factor by which lung concentration was smaller than that of the corresponding compound of the invention [2]: 23
- fold less potent than the corresponding compound of the invention in the enzyme assay [8]: 2.5 fold
- fold less potent than the corresponding compound of the invention in the BEAS-2B cellular assay [4]: 6 fold
